Assay results: patent US20130005678A1, “Methods and Compositions for Treating or Ameliorating Cancer Using Gemcitabine-5'-Elaidate” (CLAVIS PHARMA ASA, priority 2010, published 2013)

What was measured:
Murine Lewis Lung cells = settings: BDF1 mice; intravenously on Day 1
Procedure: Murine Lewis Lung cells are intravenously injected to BDF1 mice. Mean survival as well as body weight change and tumor free survivors on Day 72 are endpoints of the study. […] Treatment is administered once daily intraperitoneally on Days 1-4 and 7-11.

[1] = test system: CCRF-CEM human leukemia cell line; test: Triphosphate accumulation and retention in CCRF-CEM cells; type: cell-based
From the text: Drugs: Gemcitabine-5′-elaidate was provided by Clavis Pharma (Oslo, Norway), tetra hydro uridine (THU) was from Calbiochem (Merck, Darmstadt, Germany), dipyridamole and ara-C were from Sigma-Aldrich (St. Louis, Mo., USA) and dFdC was from Eli-Lilly (Indianapolis, Ind., USA). The radioactively labeled drugs were obtained from Moravek (Brea, Calif., USA); the drugs were labeled with tritium on the 5-C site of the base. A mix of radioactive and non-radioactive compounds was made for exposure of cells; dFdC and CP-4126 were used at a final concentration of 8.9 μM and a specific activity of 586 and 391 mCi/mmol, respectively.
Cell lines: For the experiments the CCRF-CEM human leukemia cell line and its dCK negative variant (CEM/dCK−) were used. The cell lines were cultured in RPMI medium (BioWhittaker, Verviers, Belgium) supplemented with 10% fetal calf serum (PAA laboratories, Pasching, Austria) and HEPES buffer (BioWhittaker). Of the nucleoside influx transporters, the CEM cell line only expresses the equilibrative nucleoside transporter (hENT) and not the concentrative nucleoside transporter (hCNT). Belt et al. Adv. Enzyme Regul., 1993, 33, 235-52. Dipyridamole (DP) was used to inhibit the influx of the drugs by hENT. In order to get a clean picture, THU was also added to inhibit deamination of ara-C and dFdC.
Triphosphate accumulation: Cells were treated with 1 and 10 μM of dFdC, while for the lipophilic analogs 10 and 100 μM was used. The cells were incubated for 60 minutes and retention of the triphosphates was investigated after 60 and 120 minutes incubation in drug-free medium. Dipyridamole was added to inhibit drug influx by the hENT transporter. After incubation the cell pellet was resuspended in ice-cold PBS and incubated for 20 minutes at 4° C. with 40% trichloroacetic acid. After centrifugation (10,000 g, 10 min, 4° C.) the supernatant was treated with a 2-fold excess of trioctylamine/1,1,2-trichlorotrifluorethane (1:4) and spun down (10,000 g, 1 min) and the aqueous phase was stored at −20° C. until analysis by HPLC on a Whatman Partisphere SAX column (GE healthcare, Chalfont St. Giles, UK) using gradient (dFdC-TP) elution as described earlier. Noordhuis et al., Leuk. Res., 1996, 20, 127-34; Ruiz van Haperen, et al., Biochem. Pharmacol., 1994, 48, 1327-39.

xenograft mouse models = test: Correlation of hENT1 mRNA levels and sensitivity to gemcitabine in xenograft mouse models (FIG. 6); type: in vivo; settings: higher expression level of hENT1 mRNA
From the text: FIG. 6 depicts the correlation of hENT1 mRNA levels and sensitivity to gemcitabine in xenograft mouse models. There are many nucleoside transporters and each may move nucleoside analog drugs across the membrane with unique kinetics. A cancer cell which has lower levels nucleoside transporters will be less efficient at transporting these drugs into the cells, reducing the efficacy of the drug. For example a tumor that has low levels of hENT1 is less sensitive to treatment with gemcitabine. FIG. 6 depicts the correlation of hENT1 mRNA levels and sensitivity to gemcitabine in xenograft mouse models. In some aspects low expression of hENT1 on pancreatic tumor cells linked to poor survival after gemcitabine therapy. In addition, hENT1 deficient tumor cells are resistant to pyrimidine nucleoside analogs in vitro. For example, hENT1 mRNA levels are co-related to the sensitivity to gemcitabine in xenograft mouse models.

[2] = test system: Co-26 murine colon cancer cells; test: Antitumor effect in Co-26 liver metastasis model; type: in vivo; settings: single dose
Procedure: Antitumor effect of single dose of gemcitabine-5′-elaidic acid ester or gemcitabine is tested in Balb/C female mice injected with Co-26 murine colon cancer cells in the spleen (a liver metastasis model). […] The activity of gemcitabine is similar.

[3] = test system: human colon cancer Co6044; test: Antitumor activity in human colon xenograft Co6044 (intraperitoneal); type: in vivo; settings: NCR female mice; intraperitoneally every third day five times; gemcitabine 120 mg/kg, gemcitabine-5′-elaidic acid ester 40 mg/kg
Procedure: (§1) Fragments of human colon cancers Co5776 and Co6044 are implanted subcutaneously in NCR female mice (7-8 mice/group). Gemcitabine (120 mg/kg) and gemcitabine-5′-elaidic acid ester (40 mg/kg) are administered intraperitoneally, every third day for five times.

[4] = test system: human colon cancer Co5776; test: Antitumor activity in human colon xenograft Co5776; type: in vivo; settings: NCR female mice; intraperitoneally every third day five times; gemcitabine 120 mg/kg, gemcitabine-5′-elaidic acid ester 40 mg/kg
Procedure: as §1
NCr female mice implanted subcutaneously with human colon carcinoma fragments, Co5776, are treated intraperitoneally. Two different schedules of gemcitabine-5′-elaidic acid ester are administered, once weekly times 2 (Days 11 and 18), and every third day times 5 (Days 11, 14, 17, 20, and 23). Antitumor activity of gemcitabine-5′-elaidic acid ester is similar for 150 mg/kg once weekly, administered twice or 40 mg/kg every third day administered five times.

pancreatic cancer = test: Survival of pancreatic cancer patients receiving gemcitabine monotherapy (FIG. 8); type: in vivo, human; settings: hypothetical plot
Procedure: Patients suffering from pancreatic cancer are administered gemcitabine monotherapy. Post mortem studies of the patients' tumors determine the levels of hENT1 expression in the tumors. FIG. 8 depicts a Kaplan-Meier plot of survival for patients receiving the gemcitabine monotherapy Patients with high hENT1 expression (dotted line) outperform those with areas of hENT1-low tumor.

CEM cells = test: Intracellular dFdCTP level in CEM cells with or without dipyridamole (HPLC); type: cell-based, human; settings: 10 μM
Procedure: hENT1 can inhibited in vitro by various agents including dipyridamole, NBMPR, and NBI. In order to test whether gemcitabine-5′-elaidate entry into the cells is independent of a nucleoside transporter such as hENT1, dipyridamole is used to block hENT1. The intracellular level of dFdCTP is determined in CEM cells after 60 minutes exposure to either dFdC or gemcitabine-5′-elaidate, with or without the addition of dipyridamole (DP). The compounds are administered at 10 μM, and the triphosphates are determined using HPLC. Deamination is blocked using tetrahydrouridine.

O=P1(N(CCCl)CCCl)NCCCO1 (stereo not drawn) [CTX, Cyclophosphamide]
antitumor activity (Murine Lewis Lung cells): highly active
toxicity (Murine Lewis Lung cells): non-toxic

Nc1ccn([C@@H]2O[C@H](CO)[C@@H](O)C2(F)F)c(=O)n1 [gemcitabine, 2′2′-difluorodeoxycytidine]
retention of dFdC-TP concentration after washing away the drugs ([1]; 60 and 120 minutes in drug-free medium): decreased after washing away the drugs
triphosphates formed after 60 minutes incubation ([1]; dFdC 1 and 10 μM, lipophilic analog 10 and 100 μM): more triphosphates were formed
effect of dipyridamole on dFdC-TP accumulation ([1]; hENT inhibited by dipyridamole): abolishing accumulation of dFdC-TP
response in relation to hENT1 mRNA expression level (xenograft mouse models): better response
activity compared with gemcitabine [2]: similar
antitumor effect [3]: Significant antitumor effect
antitumor effect [4]: Significant antitumor effect
survival (Kaplan-Meier), high hENT1 vs hENT1-low tumor (pancreatic cancer): outperform
intracellular triphosphate (dFdCTP) level with DP (CEM cells; 60 minutes exposure, with dipyridamole, tetrahydrouridine present): below level of detection
level of triphosphate over time in the absence of DP (CEM cells; after exposure, without dipyridamole): decreases with time
